Experimental data published in ChEMBL document CHEMBL1158409, “Discovery of 3,5-disubstituted-1H-pyrrolo[2,3-b]pyridines as potent inhibitors of the insulin-like growth factor-1 receptor (IGF-1R) tyrosine kinase” (Bioorg Med Chem Lett, 2009).

Assays:
[1] = target: T1, Insulin-like growth factor 1 receptor (Homo sapiens, UniProt P08069); experiment: Inhibition of GST-tagged human IGF1R expressed in Sf9-baculovirus system
[2] = target: T1, Insulin-like growth factor 1 receptor; experiment: Inhibition of IGF1-induced human IGF1R phosphorylation expressed in mouse NIH-3T3 cells treated 2 hrs prior to IGF1 challenge by DELFIA
[3] = target: Mitogen-activated protein kinase 10 (Homo sapiens, UniProt P53779); experiment: Inhibition of JNK3
[4] = target: Tyrosine-protein kinase SYK (Homo sapiens, UniProt P43405); experiment: Inhibition of SYK
[5] = target: Tyrosine-protein kinase Lyn (Homo sapiens, UniProt P07948); experiment: Inhibition of LYN
[6] = target: Mitogen-activated protein kinase 8 (Homo sapiens, UniProt P45983); experiment: Inhibition of JNK1
[7] = target: T2, Inhibitor of nuclear factor kappa-B kinase subunit alpha (Homo sapiens, UniProt O15111); experiment: Inhibition of IKK1
T2 sequence (O15111 whole entry): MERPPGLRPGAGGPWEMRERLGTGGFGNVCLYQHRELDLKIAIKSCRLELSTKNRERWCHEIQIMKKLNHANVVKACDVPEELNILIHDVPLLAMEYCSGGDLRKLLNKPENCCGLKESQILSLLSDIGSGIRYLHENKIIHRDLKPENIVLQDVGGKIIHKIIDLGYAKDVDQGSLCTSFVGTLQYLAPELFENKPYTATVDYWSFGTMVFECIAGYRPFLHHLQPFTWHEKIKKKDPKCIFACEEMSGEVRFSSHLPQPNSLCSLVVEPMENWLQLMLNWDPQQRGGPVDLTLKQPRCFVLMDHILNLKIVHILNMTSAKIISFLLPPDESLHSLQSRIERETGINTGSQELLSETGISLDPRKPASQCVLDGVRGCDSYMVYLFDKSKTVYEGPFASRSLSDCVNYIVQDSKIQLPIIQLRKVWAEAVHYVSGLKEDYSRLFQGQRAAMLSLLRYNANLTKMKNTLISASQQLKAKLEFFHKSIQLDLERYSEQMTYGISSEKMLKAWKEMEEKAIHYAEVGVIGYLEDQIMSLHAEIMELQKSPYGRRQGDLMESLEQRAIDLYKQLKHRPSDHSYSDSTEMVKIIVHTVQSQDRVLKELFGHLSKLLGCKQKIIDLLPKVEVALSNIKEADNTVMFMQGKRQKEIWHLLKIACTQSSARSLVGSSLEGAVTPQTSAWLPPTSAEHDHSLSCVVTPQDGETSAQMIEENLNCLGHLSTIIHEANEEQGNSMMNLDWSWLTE

[8] = target: T3, Inhibitor of nuclear factor kappa-B kinase subunit beta (Homo sapiens, UniProt O14920); experiment: Inhibition of IKK2
T3 sequence (O14920 whole entry): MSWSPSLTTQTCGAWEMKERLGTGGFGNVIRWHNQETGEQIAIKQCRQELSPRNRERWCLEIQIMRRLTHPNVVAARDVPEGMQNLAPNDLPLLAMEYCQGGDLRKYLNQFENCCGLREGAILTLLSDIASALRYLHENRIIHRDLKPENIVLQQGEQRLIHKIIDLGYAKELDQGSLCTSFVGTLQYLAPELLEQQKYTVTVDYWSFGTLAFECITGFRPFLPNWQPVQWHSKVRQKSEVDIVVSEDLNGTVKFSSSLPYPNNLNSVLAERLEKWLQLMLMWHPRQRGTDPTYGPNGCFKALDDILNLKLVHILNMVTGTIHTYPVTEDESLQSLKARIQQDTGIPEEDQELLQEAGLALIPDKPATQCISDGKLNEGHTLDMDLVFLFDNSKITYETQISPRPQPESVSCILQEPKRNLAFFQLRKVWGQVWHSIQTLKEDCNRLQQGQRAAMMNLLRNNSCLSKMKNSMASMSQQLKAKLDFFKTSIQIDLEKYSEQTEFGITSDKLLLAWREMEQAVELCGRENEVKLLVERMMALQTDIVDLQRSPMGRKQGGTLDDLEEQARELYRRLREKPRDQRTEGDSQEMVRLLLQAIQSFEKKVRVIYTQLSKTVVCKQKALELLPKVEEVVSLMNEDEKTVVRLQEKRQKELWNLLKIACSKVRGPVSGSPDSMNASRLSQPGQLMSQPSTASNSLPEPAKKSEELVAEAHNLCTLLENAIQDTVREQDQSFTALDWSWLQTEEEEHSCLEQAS

T1 sequence (P08069 31-736 limits assumed): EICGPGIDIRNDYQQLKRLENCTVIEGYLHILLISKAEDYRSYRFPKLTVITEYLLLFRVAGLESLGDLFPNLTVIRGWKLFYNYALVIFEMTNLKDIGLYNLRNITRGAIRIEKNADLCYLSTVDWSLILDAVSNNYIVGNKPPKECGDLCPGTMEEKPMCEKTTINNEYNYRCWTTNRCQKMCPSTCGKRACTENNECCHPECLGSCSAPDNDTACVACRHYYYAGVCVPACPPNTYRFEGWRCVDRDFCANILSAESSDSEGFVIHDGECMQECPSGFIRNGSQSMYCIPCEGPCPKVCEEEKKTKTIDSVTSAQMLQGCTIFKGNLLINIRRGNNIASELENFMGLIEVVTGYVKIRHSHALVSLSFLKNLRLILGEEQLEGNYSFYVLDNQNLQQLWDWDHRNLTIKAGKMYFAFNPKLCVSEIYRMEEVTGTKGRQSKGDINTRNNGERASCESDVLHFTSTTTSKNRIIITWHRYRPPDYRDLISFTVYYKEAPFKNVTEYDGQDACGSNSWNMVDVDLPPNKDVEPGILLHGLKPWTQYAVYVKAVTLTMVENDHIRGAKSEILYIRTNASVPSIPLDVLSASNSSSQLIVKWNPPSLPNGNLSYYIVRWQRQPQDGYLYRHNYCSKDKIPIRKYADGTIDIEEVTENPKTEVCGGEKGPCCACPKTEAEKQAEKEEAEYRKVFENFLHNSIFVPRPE
T1 sequence (P08069 741-1367 limits assumed): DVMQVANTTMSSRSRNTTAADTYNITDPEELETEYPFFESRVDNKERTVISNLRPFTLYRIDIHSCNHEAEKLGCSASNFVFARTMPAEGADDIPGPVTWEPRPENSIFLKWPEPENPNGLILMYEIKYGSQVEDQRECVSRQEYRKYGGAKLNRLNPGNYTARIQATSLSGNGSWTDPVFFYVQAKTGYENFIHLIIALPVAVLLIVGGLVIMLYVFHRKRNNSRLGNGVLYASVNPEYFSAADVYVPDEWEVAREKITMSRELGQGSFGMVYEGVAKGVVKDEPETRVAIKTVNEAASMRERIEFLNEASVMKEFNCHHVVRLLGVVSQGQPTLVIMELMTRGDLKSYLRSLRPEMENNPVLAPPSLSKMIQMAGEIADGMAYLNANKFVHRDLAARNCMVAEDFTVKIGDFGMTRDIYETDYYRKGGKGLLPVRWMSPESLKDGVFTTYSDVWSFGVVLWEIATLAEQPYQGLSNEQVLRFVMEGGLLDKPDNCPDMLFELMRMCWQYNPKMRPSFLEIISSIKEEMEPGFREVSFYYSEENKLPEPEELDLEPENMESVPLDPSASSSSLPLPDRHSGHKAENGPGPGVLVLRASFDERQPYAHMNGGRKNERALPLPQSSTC
Chain of Mitogen-activated protein kinase 10 (P53779 whole entry): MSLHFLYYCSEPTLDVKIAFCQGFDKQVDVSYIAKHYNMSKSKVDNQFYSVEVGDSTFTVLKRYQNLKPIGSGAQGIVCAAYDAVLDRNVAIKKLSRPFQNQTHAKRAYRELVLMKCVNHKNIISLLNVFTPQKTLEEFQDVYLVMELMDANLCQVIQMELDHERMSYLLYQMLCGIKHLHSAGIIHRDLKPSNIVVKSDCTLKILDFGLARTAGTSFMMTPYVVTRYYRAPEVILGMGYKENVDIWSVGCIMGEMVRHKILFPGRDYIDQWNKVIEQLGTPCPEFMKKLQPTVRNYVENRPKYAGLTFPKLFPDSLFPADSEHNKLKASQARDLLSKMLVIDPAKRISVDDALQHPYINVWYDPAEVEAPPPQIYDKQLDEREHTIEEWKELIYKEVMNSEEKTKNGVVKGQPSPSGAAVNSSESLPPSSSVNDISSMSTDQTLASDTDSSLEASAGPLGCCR
Chain of Tyrosine-protein kinase Lyn (P07948 whole entry): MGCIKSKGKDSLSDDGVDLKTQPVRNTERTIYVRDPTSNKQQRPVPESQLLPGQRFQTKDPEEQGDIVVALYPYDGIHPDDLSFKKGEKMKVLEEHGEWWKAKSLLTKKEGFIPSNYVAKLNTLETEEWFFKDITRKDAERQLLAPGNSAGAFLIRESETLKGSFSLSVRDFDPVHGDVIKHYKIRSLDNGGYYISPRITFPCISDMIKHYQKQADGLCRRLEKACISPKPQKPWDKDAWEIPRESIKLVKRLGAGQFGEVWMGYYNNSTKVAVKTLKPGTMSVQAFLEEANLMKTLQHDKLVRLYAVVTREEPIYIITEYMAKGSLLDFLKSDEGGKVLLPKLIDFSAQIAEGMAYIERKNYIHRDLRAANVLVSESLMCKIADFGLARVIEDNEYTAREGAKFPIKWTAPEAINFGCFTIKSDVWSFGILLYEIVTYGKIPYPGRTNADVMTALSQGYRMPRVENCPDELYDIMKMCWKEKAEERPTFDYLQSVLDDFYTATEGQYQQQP
Chain of Mitogen-activated protein kinase 8 (P45983 whole entry): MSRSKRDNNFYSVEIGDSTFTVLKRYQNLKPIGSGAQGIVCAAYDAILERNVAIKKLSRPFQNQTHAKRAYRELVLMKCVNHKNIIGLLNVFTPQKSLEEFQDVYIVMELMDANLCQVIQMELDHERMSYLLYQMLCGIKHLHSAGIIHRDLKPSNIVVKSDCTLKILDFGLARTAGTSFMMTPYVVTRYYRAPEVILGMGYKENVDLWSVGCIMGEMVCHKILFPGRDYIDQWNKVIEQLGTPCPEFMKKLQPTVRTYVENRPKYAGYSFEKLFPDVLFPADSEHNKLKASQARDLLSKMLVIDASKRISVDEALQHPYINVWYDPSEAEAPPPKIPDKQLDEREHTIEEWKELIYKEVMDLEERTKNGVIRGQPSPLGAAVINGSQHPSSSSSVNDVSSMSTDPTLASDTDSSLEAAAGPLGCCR

Compound | IC50 [1] [nM] | IC50 [2] [nM] | further results
CN(C)C(=O)c1cccc(-c2cnc3[nH]cc(-c4cccc(NC(=O)Nc5ccc(Oc6ccccc6)cc5)c4)c3c2)c1 | 2040 | 3070 | –
CN(C)C(=O)c1cccc(-c2cnc3[nH]cc(-c4cccc(NC(=O)Nc5ccccc5OCc5ccccc5)c4)c3c2)c1 | 132 | 517 | –
O=C(O)CCc1ccc(-c2cnc3[nH]cc(-c4cccc(NC(=O)Nc5ccccc5Oc5ccccc5)c4)c3c2)cc1 | 210 | 3620 | –
CN(C)C(=O)c1cccc(-c2cnc3[nH]cc(-c4cccc(NC(=O)Nc5ccccc5Oc5ccccc5)c4)c3c2)c1 | 21 | 68 | –
CN(C)CCNC(=O)c1cccc(-c2cnc3[nH]cc(-c4cccc(NC(=O)Nc5ccccc5Oc5ccccc5)c4)c3c2)c1 | 4 | – | –
O=C(Nc1cccc(Cl)c1)Nc1cccc(-c2c[nH]c3ncc(-c4ccccc4)cc23)c1 | 1020 | – | –
O=C(Nc1ccccc1)Nc1cccc(-c2c[nH]c3ncc(-c4ccccc4)cc23)c1 | 749 | – | –
CN(C)S(=O)(=O)c1ccc(-c2cnc3[nH]cc(-c4cccc(NC(=O)Nc5ccccc5Oc5ccccc5)c4)c3c2)cc1 | – | 20800 | –
CN(C)S(=O)(=O)c1cccc(-c2cnc3[nH]cc(-c4cccc(NC(=O)Nc5ccccc5Oc5ccccc5)c4)c3c2)c1 | 57 | 1120 | –
CN(C)C(=O)c1cccc(-c2cnc3[nH]cc(-c4cccc(NC(=O)Nc5ccccc5Nc5ccccc5)c4)c3c2)c1 | 39 | 407 | –
CN(C)C(=O)c1cccc(-c2cnc3[nH]cc(-c4cccc(NC(=O)Nc5cccc(Oc6ccccc6)c5)c4)c3c2)c1 | 212 | 961 | –
O=C(Nc1cccc(-c2c[nH]c3ncc(-c4ccoc4)cc23)c1)Nc1ccccc1Oc1ccccc1 | 251 | 1260 | –
O=C(Nc1cccc(-c2c[nH]c3ncc(-c4ccccc4)cc23)c1)Nc1ccccc1Oc1ccccc1 | 127 | 693 | –
CN(C)CCNC(=O)c1ccc(-c2cnc3[nH]cc(-c4cccc(NC(=O)Nc5ccccc5Oc5ccccc5)c4)c3c2)cc1 | 4 | 415 | –

Further lines, with some results ahead:

IC50 [1] [nM] | IC50 [2] [nM] | Compound | further results
67 | – | CN(C)CCNC(=O)c1cccc(-c2cnc3[nH]cc(-c4cccc(NC(=O)Nc5ccc(C(F)(F)F)cc5F)c4)c3c2)c1 | –
36 | – | CN(C)CCNC(=O)c1ccc(-c2cnc3[nH]cc(-c4cccc(NC(=O)Nc5ccc(C(F)(F)F)cc5F)c4)c3c2)cc1 | –
242 | – | Nc1cccc(-c2cnc3[nH]cc(-c4cccc(NC(=O)Nc5ccc(C(F)(F)F)cc5F)c4)c3c2)c1 | –
200 | – | Nc1ccc(-c2cnc3[nH]cc(-c4cccc(NC(=O)Nc5ccc(C(F)(F)F)cc5F)c4)c3c2)cc1 | –
50 | – | NCc1ccc(-c2cnc3[nH]cc(-c4cccc(NC(=O)Nc5ccc(C(F)(F)F)cc5F)c4)c3c2)cc1 | IC50 [3]: 250 nM; IC50 [4]: 80 nM; IC50 [5]: 40 nM; IC50 [6]: 79 nM; IC50 [7]: 32 nM; IC50 [8]: 79 nM
286 | – | CN1CCN(C(=O)c2ccc(-c3cnc4[nH]cc(-c5cccc(NC(=O)Nc6ccc(C(F)(F)F)cc6F)c5)c4c3)cc2)CC1 | –
1260 | – | O=C(Nc1cccc(-c2c[nH]c3ncc(-c4ccccc4)cc23)c1)Nc1ccc(C(F)(F)F)cc1F | –
335 | – | CN1CCN(C(=O)c2cccc(-c3cnc4[nH]cc(-c5cccc(NC(=O)Nc6ccc(C(F)(F)F)cc6F)c5)c4c3)c2)CC1 | –
184 | 1040 | O=C(Nc1cccc(-c2c[nH]c3ncc(-c4cccc(C(=O)O)c4)cc23)c1)Nc1ccccc1Oc1ccccc1 | –
31 | 128 | CN(C)C(=O)c1ccc(-c2cnc3[nH]cc(-c4cccc(NC(=O)Nc5ccccc5Oc5ccccc5)c4)c3c2)cc1 | –
2200 | – | COc1ccc(-c2cnc3[nH]cc(-c4cccc(NC(=O)Nc5ccc(C(F)(F)F)cc5F)c4)c3c2)cc1OC | –
20 | – | NCc1ccc(-c2cnc3[nH]cc(-c4cccc(NC(=O)Nc5cccc(Cl)c5)c4)c3c2)cc1 | –
605 | – | O=C(Nc1cccc(-c2c[nH]c3ncc(-c4cccc(F)c4)cc23)c1)Nc1ccc(C(F)(F)F)cc1F | –
